The values below come from patent US20220332758A1, “PEPTIDE-BASED COMPOSITIONS AND METHODS FOR TREATING ALZHEIMER'S DISEASE” (Board of Regents, The Universityof Texas System, priority 2019, published 2022).

Data set [1] has as its target T1, latent 20S core proteasome, T-L peptidase (Homo sapiens, UniProt P25787+P60900).
T1 construct: purified from erythrocytes; purchased Boston Biochem, Inc. or Enzo Life Sciences, Inc; host or cells: human erythrocytes
Description: Trypsin-like (T-L) peptidase activity of the core proteasome. Format: biochemical. Here is the method:
Determination of Proteasome Activity. Human housekeeping core (20S) proteasome purified from erythrocytes was purchased from Boston Biochem, Inc. (Cambridge, Mass.) or from Enzo Life Sciences, Inc. (Farmingdale, N.Y.). Multiple batches of the proteasomes were used and performed reproducibly. The stock proteasome was diluted to 0.2 mg/mL working solution in “dilution buffer” (50 mM Tris/HCl, pH 8, 20% glycerol). The following model peptide substrates, releasing fluorescent 7-amino-4-methylcoumarin (AMC) reporter group after cleavage, were used: succinyl-LeuLeuValTyr-AMC (SEQ ID NO: 14) (for the ChT-L peptidase; SucLLVY-AMC; Bachem Bioscience Inc., Philadelphia, Pa.), butoxycarbonyl-LeuArgArg-AMC (T-L; Bachem Bioscience Inc., Philadelphia, Pa.) and carbobenzoxy-LeuLeuGlu-AMC (PGPH; Enzo Life Sciences Inc., Farmingdale, N.Y.). […] After mixing, the plate was transferred to a Fluoroskan Ascent plate reader (Thermo Fisher Scientific Inc., Waltham, Mass.) for 1 h (37° C.), with fluorescence readouts once per minute. […] The reaction rates were calculated from a linear segment of kinetic curves constructed from measurements in 1-min intervals. Reaction rates were calculated using a linear fit performed with the Slope Analyser and Enzyme Kinetics applications launched within Origin Pro 2019 (OriginLab Corporation, Northampton, Mass.). […]

The target of data set [2] is T2, proteasome ChT-L activity in SK-N-SH (ATCC HTB-11) cells (Homo sapiens, UniProt P25787+P60900).
T2 construct: host or cells: SK-N-SH human neuroblastoma cells
In words: ChT-L proteasome activity in lysates of SK-N-SH cells treated with TAT peptides. Format: cell-based. The conditions noted are these: for proteasome ChT-L activity in lysates from treated cells vs control lysates: 1 μM, 24 h.
Description: Cell Culture. Human SK-N-SH neuroblastoma cell line (ATCC® HTB-11™ American Type Culture Collection; Manassas, Va.) were cultured according to ATCC specifications (EMEM, 10% heat-inactivated FBS) The cells at passage 2-4 were treated with 1 μM TAT peptides or the DMSO vehicle diluted with the medium 1: 1000, for 24 h. The content of live cells was determined by the Trypan Blue-exclusion assay. The cells were harvested, washed twice in PBS, resuspended in dilution buffer (as described herein) and stored in −80° C. To prepare lysates, the thawed preparations were vortexed with glass beads and centrifuged for 5 min 5,000×g (4° C.). The supernatant was centrifuged for 20 min 14,000×g (4° C.). The resulting supernatant—“crude lysate” was diluted to 1 mg/mL of total protein with dilution buffer. 1 μg of lysate per assay (reaction buffer: 50 mM Tris/HCl pH 8, 0.1 mM MgCl2, 0.2 mM ATP, 0.1 mM dithiothreitol, 50 μM Suc-LLVY-AMC (SEQ ID NO: 14)) was used for determination of ChT-L activity in a 96-well format, as above.

The nature of another data set: Stability in human serum. In kind it is in vitro ADME.
Data set [3] deals with T3, proteasome activity in W^1118 flies (Drosophila melanogaster, UniProt P40301+Q9XZJ4).
T3 construct: from tissue
T3 sequence (Q9XZJ4 whole entry): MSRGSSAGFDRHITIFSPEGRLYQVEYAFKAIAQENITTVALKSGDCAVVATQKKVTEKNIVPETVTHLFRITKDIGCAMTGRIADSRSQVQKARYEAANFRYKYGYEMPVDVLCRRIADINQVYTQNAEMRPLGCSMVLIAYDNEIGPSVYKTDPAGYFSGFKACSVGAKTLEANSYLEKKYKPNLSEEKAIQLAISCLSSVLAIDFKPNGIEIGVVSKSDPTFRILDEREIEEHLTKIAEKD
T3 sequence (P40301 whole entry): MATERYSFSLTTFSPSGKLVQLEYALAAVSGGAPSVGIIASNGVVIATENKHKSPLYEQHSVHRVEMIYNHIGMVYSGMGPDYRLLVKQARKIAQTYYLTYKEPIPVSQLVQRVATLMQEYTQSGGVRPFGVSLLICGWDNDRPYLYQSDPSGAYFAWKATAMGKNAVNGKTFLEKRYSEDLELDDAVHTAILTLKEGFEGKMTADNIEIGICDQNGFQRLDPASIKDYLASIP
In words: Proteasome activity in flies fed the compounds. In kind it is in vivo. The conditions noted are these: fed for 10 days. Here is the method:
Fly Lines and Strain Maintenance. UAS-ProsBeta5 (Staudt, N. et al. PLoS Genet 1, e55, doi:10.1371/journal.pgen.0010055 (2005)) and Elav-GS-GAL4; UAS-hAPP; UAS-hBACE1 (56756) stocks were obtained from the Bloomington Drosophila Stock Center (NIH P40OD018537). The lines were maintained on agar-cornmeal-dextrose-yeast growth media (Ren, C., Finkel, S. E. & Tower, J. Exp Gerontol 44, 228-235, doi:10.1016/j.exger.2008.10.002 (2009)) in a humidified 24° C. incubator with 12:12-hour light:dark cycle. The crosses were set up with female virgins of the respective GAL4 driver line and male UAS-ProsBeta5 or W^1118 flies. Progeny were collected within 48 hours of eclosion and allowed to mate on 10% sugar/yeast (SY10) media (Skorupa, D. A., et al. Aging Cell 7, 478-490, doi:10.1111/j.1474-9726.2008.00400.x (2008)) for another 48 hours. After this period, females were separated and sorted into sets of 25 flies per vial containing SY10 media supplemented either with 400 μM mifepristone (RU486) or ethanol vehicle, mixed directly into the food. 8 μM Blue Dye #1 was added to food containing RU486 for the purpose of identification. Carbon dioxide was used to briefly anesthetize flies for sorting. Flies were moved to vials of fresh media every two to three days.
Plate-based proteasome activity assay. […]

The subject of data set [4] is elav-GS-Gal4>UAS-APP, UAS-Bace1 flies. In words: Spontaneous activity in fly AD model. In kind it is in vivo, Drosophila melanogaster. The following applies: 1 μM in food. Here is the method: Spontaneous activity and circadian rhythm. Spontaneous activity was monitored using a Trikinetic activity monitor, in which vials containing 20-25 flies were secured and activity recorded in a humidified 24° C. incubator with 12:12-hour light:dark cycles as described herein. Flies were allowed to acclimate for 8 hours prior to data collection. Activity was averaged for each twelve-hour cycle and normalized per fly.

SMILES strings stand for the structures. “Also recorded” adds a separate entry of the source.

For `N=C(N)NCCCC(NC(=O)CN)C(=O)NC(CCCCN)C(=O)NC(CCCCN)C(=O)NC(CCCNC(=N)N)C(=O)NC(CCCNC(=N)N)C(=O)NC(CCC(N)=O)C(=O)N1Cc2ccccc2C[C@H]1C(=O)N1C(C(=O)NC(CCCNC(N)N)C(=O)N2CCCC2C(=O)NC(CO)C(=O)O)CC2CCCCC21` (some centres unmarked) [(5), GRKKRRQ-TOD-RPS], the “effect on trypsin-like (T-L) activity” value in data set [1] is given as “weak inhibitory effects; also recorded: did not seem to significantly affect”. Further, the “proteasome ChT-L activity in lysates from treated cells vs control lysates” value in data set [2] was “significantly higher than activity in control lysates”. Further, the “dose and time dependence of proteasome activation in cells” value in data set [2] (0.5 or 1.0 μM, four or 24 h) is recorded as “substantially stronger after 4 h exposure than after 24 h”. Besides, the half-life in “Stability in human serum” was ~2 h. Besides, the “proteasome activity in flies” value in data set [3] is reported as “enhance proteasome activity when fed to flies”. Besides, in data set [4], the spontaneous activity result was “increased spontaneous activity”.

With `NCCCCC(N)C(=O)NC(CCCCN)C(=O)NC(CCCCN)C(=O)Nc1cc(NC(=O)C(CCCCN)NC(=O)C(CCCCN)NC(=O)C(N)CCCCN)cc(C(=O)NC(CCCCN)C(=O)NC(CCCCN)C(=O)NC(CCCCN)C(=O)O)c1` (centres unmarked) [(8)], the “effect on trypsin-like (T-L) activity” value in data set [1] is given as “weak inhibitory effects; also recorded: did not seem to significantly affect”. In data set [2], the “proteasome ChT-L activity in lysates from treated cells vs control lysates” value is given as “significantly higher than activity in control lysates”. In addition, the “stability in serum (in words)” value in the data set “Stability in human serum” was “rapidly modified from triple-lysines to double-lysines”. Further, in data set [3], the “proteasome activity in flies” value is recorded as “enhance proteasome activity when fed to flies”. Further, the spontaneous activity result in data set [4] is “increased spontaneous activity”.

For orientation: half-life means the time in which the quantity being followed falls by half. Low readings indicate fast loss, high ones slow loss.
